Consider 35 molecules from patent publication US4622337A, “2,2-dimethyl-3-(2-halovinyl)cyclopropane carboxlic acid ester pesticides” (priority 1972, dated 1986).

Experiment [1] deals with houseflies (Musca domestica). As to the kind of experiment: Relative toxicity to houseflies, topical drop on thorax. Format: in vivo. The note with it: 5-benzyl-3-furylmethyl (1R)-trans-chrysanthemate = 1000; inverse ratio of LD50; topical, female flies. As for the experimental part:
(§1) The toxicity of these new esters was tested by the procedure described in detail in our above mentioned application and the following results were obtained:
(§2) The insecticidal acitivity of the esters of the invention was assessed against houseflies and mustard beetles using the following techniques:
Female flies were treated on the thorax with a one microliter drop of insecticide dissolved in acetone. Two replicates of 15 flies were used at each dose rate and 6 dose rates were used per compound under test. After treatment, the flies were maintained at a temperature of 20° C.±1° and kill was assessed 24 and 48 hours after treatment. LD50 values were calculated in micrograms of insecticide per fly and relative toxicities were calculated from the inverse ratios of the LD50 values. (see Sawicki et al, Bulletin of the World Health Organization, 35,893, (1966) and Sawicki et al, Entomologia and Exp. Appl. 10, 253, (1967)).
(§3) Relative toxicities were calculated by comparison with 5-benzyl-3-furylmethyl(1R)-trans-chrysanthemate which is one of the most toxic chrysanthemate esters known to houseflies and mustard beetles, its toxicity being about 24 times that of allethrin to houseflies and 65 times that of allethrin to mustard beetles.

Experiment [2] deals with mustard beetles (Phaedon cochleariae Fab). Nature of the experiment: Relative toxicity to mustard beetles, topical micro drop. The note with it: 5-benzyl-3-furylmethyl (1R)-trans-chrysanthemate = 1000; inverse ratio of LD50; topical, 48 hours. It is filed as in vivo. As for the experimental part: as §1, §2
Acetone solutions of the test compound were applied ventrally to adult mustard beetles using a micro drop applicator. The treated insects were maintained for 48 hours after which time kill is assessed. Two replicates of 40 to 50 mustard beetles were used at each dose level and 3 to 4 dose levels were used for each compound. Again, LD50 values were calculated and relative toxicities were calculated for the inverse ratios of LD50 (see Elliott et al, J. Sci. Food Agric. 20, 561, (1969)).
as §3

Turning to `CC1(C)C(C=C(Cl)Cl)C1C(=O)OCC#CCOc1ccccc1` (racemic) [Compound ME5, 4-Phenoxybut-2-ynyl(1RS)-cis,trans-3-(2,2-dichlorovinyl)-2,2-dimethylcyclopropane carboxylate], the “Relative Toxicity, Houseflies” value in experiment [1] came out at 300. For the same molecule, the “Relative Toxicity, Mustard Beetles” value in experiment [2] stood at 40.

Turning to `CC1(C)C(C=C(Cl)Cl)C1C(=O)OC(C#N)c1coc(Cc2ccccc2)c1` (racemic) [Compound P21N, (αRS)-Cyano-5-benzyl-3-furylmethyl-(1RS)-cis-trans-3-(2,2-dichlorovinyl)-2,2-dimethyl cyclopropane carboxylate], in experiment [1], the “Relative Toxicity, Houseflies” value is 100. The “Relative Toxicity, Mustard Beetles” value in experiment [2] turned out to be 2000.

Take `CC1(C)C(C=C(Cl)Cl)C1C(=O)OC(C#N)c1cccc(Oc2ccccc2)c1` (racemic) [Compound P29F, (αRS)-cyano-3-phenoxybenzyl(1RS)-cis-trans-2,2-dimethyl-3-(2,2-dichlorovinyl)-cyclopropane carboxylate]: in experiment [1], the “Relative Toxicity, Houseflies” value is given as 1700.

In the case of `CC1(C)[C@H](C=C(Cl)Cl)[C@H]1C(=O)OCc1cccc(C(=O)c2ccccc2)c1` (racemic) [Compound P39B, 3-benzoylbenzyl(1RS)-trans-2,2-dimethyl-3-(2,2-dichlorovinyl)-cyclopropane carboxylate], the “Relative Toxicity, Houseflies” value in experiment [1] was 10. The “Relative Toxicity, Mustard Beetles” value in experiment [2] was 590.

Regarding `CC1(C)C(C=C(Cl)Cl)C1C(=O)OC1C=C(Cc2ccccc2)C(=O)C1` (racemic) [ME8, (±)-2-benzylcyclopentenon-4-yl(1RS)-cis,trans-3,(2,2-dichlorovinyl)-2,2-dimethylcyclopropane carboxylate], in experiment [1], the “Relative Toxicity, Houseflies” value turned out to be 50. The “Relative Toxicity, Mustard Beetles” value in experiment [2] was 265.

For `CC1(C)[C@H](C=C(Cl)Cl)[C@H]1C(=O)OCc1cccc(Cc2ccccc2)c1` (relative stereo) [Compound P21I], the “Relative Toxicity, Houseflies” value in experiment [1] was found to be 170. Further, the “Relative Toxicity, Mustard Beetles” value in experiment [2] stood at 420.

Turning to `CC1(C)[C@H](C(=O)OCc2cccc(Cc3ccccc3)c2)[C@@H]1C=C(Cl)Cl` (relative stereo) [Compound P21J], the “Relative Toxicity, Houseflies” value in experiment [1] came to 360. Besides, the “Relative Toxicity, Mustard Beetles” value in experiment [2] was found to be 350.

Take `CC1(C)[C@H](C(=O)OC(C#N)c2cccc(Oc3ccccc3)c2)[C@@H]1C=C(Cl)Cl` (relative stereo) [Compound P29G, (αRS)-cyano-3-phenoxybenzyl(1RS)-cis-2,2-dimethyl-3-(2,2-dichlorovinyl)-cyclopropane carboxylate]: the “Relative Toxicity, Houseflies” value in experiment [1] was found to be 3800. Besides, the “Relative Toxicity, Mustard Beetles” value in experiment [2] turned out to be 2400.

As to `CC1(C)[C@H](C=C(Cl)Cl)[C@H]1C(=O)OC(C#N)c1cccc(Oc2ccccc2)c1` (relative stereo) [Compound P29H, (αRS)-cyano-3-phenoxybenzyl(1RS)-trans-2,2-dimethyl-3-(2,2-dichlorovinyl)-cyclopropane carboxylate], the “Relative Toxicity, Houseflies” value in experiment [1] stood at 1800. In experiment [2], the “Relative Toxicity, Mustard Beetles” value is listed as 750.

On to `CC1(C)[C@H](C=C(Cl)Cl)[C@H]1C(=O)OC(C#N)c1cccc(C(=O)c2ccccc2)c1` (relative stereo) [Compound P39F, (αRS)-cyano-3-benzoylbenzyl(1RS)-trans-2,2-dimethyl-3-(2,2-dichlorovinyl)-cyclopropane carboxylate], for which the “Relative Toxicity, Houseflies” value in experiment [1] was found to be 80. For the same molecule, in experiment [2], the “Relative Toxicity, Mustard Beetles” value stood at 600.

On to `C=CC=CCC1=C(C)C(OC(=O)C2C(C=C(Cl)Cl)C2(C)C)CC1=O` (single isomer, unassigned) [Compound P21M], for which the “Relative Toxicity, Houseflies” value in experiment [1] came to 19. Also, the “Relative Toxicity, Mustard Beetles” value in experiment [2] is listed as 370.

As for `C=C/C=C\CC1=C(C)C(OC(=O)[C@@H]2[C@@H](/C=C\CC)C2(C)C)CC1=O` (single isomer, unassigned) [Compound R], the “Relative Toxicity, Houseflies” value in experiment [1] amounted to 30. Moreover, the “Relative Toxicity, Mustard Beetles” value in experiment [2] turned out to be 300.

In the case of `CCCC=C[C@@H]1[C@@H](C(=O)OCc2coc(Cc3ccccc3)c2)C1(C)C` [B], the “Relative Toxicity, Houseflies” value in experiment [1] turned out to be 630. The “Relative Toxicity, Mustard Beetles” value in experiment [2] is 890.

Take `C=CCC1=C(C)C(OC(=O)[C@@H]2[C@@H](C=C(C)C)C2(C)C)CC1=O` (stereo partly shown) [Bioallethrin, reference compound]: the “Relative Toxicity, Houseflies” value in experiment [1] is reported as 60. In addition, the “Relative Toxicity, Mustard Beetles” value in experiment [2] worked out at 20.

As for `CCCCC=C[C@@H]1[C@@H](C(=O)OCc2coc(Cc3ccccc3)c2)C1(C)C` [Compound C], the “Relative Toxicity, Houseflies” value in experiment [1] is 270. In addition, the “Relative Toxicity, Mustard Beetles” value in experiment [2] amounted to 420.

For the molecule `CCC=C(C)C1C(C(=O)OCc2coc(Cc3ccccc3)c2)C1(C)C` (stereo not shown) [Compound H], the “Relative Toxicity, Houseflies” value in experiment [1] is less than 7. In experiment [2], the “Relative Toxicity, Mustard Beetles” value came to 10.

As for `CCCC=C(C)C1C(C(=O)OCc2coc(Cc3ccccc3)c2)C1(C)C` (stereo not shown) [Compound I], the “Relative Toxicity, Houseflies” value in experiment [1] is given as less than 7. Further, the “Relative Toxicity, Mustard Beetles” value in experiment [2] is given as less than 10.

Take `CC1(C)[C@H](C(=O)OCC#CCOc2ccccc2)[C@@H]1C=C(F)F` [Compound ME3, 4-Phenoxybut-2-ynyl(1R)cis-3-(2,2-difluorovinyl)-2,2-dimethylcyclopropane carboxylate]: the “Relative Toxicity, Houseflies” value in experiment [1] stood at 150. Moreover, in experiment [2], the “Relative Toxicity, Mustard Beetles” value turned out to be 30.

`CC1(C)[C@H](C=C(F)F)[C@H]1C(=O)OCC#CCOc1ccccc1` [Compound ME4, 4-Phenoxybut-2-ynyl(1R)-trans-3-(2,2-difluorovinyl)-2,2-dimethylcyclopropane carboxylate]: the “Relative Toxicity, Houseflies” value in experiment [1] turned out to be 60. The “Relative Toxicity, Mustard Beetles” value in experiment [2] came out at 70.

Regarding `CC1(C)[C@H](C(=O)OCC#CCOc2ccccc2)[C@@H]1C=C(Br)Br` [Compound ME6, 4-Phenoxybut-2-ynyl(1R)cis-3-(2,2-dibromovinyl)-2,2-dimethylcyclopropane carboxylate], the “Relative Toxicity, Houseflies” value in experiment [1] came to 390. The “Relative Toxicity, Mustard Beetles” value in experiment [2] was determined as 50.

`COC(=O)C=C[C@@H]1[C@@H](C(=O)OCc2coc(Cc3ccccc3)c2)C1(C)C` [Compound P19A]: the “Relative Toxicity, Houseflies” value in experiment [1] is 91. Further, the “Relative Toxicity, Mustard Beetles” value in experiment [2] was 100.

For `CCOC(=O)C=C[C@@H]1[C@@H](C(=O)OCc2coc(Cc3ccccc3)c2)C1(C)C` [Compound P19B], the “Relative Toxicity, Houseflies” value in experiment [1] was found to be 67. Moreover, the “Relative Toxicity, Mustard Beetles” value in experiment [2] was found to be 320.

As to `CCCOC(=O)C=C[C@@H]1[C@@H](C(=O)OCc2coc(Cc3ccccc3)c2)C1(C)C` [Compound P19C], in experiment [1], the “Relative Toxicity, Houseflies” value is recorded as 24. Also, the “Relative Toxicity, Mustard Beetles” value in experiment [2] worked out at 40.

Take `CCOC(=O)C(C)=C[C@@H]1[C@@H](C(=O)OCc2coc(Cc3ccccc3)c2)C1(C)C` [Compound P19D]: the “Relative Toxicity, Houseflies” value in experiment [1] came to 290. Further, in experiment [2], the “Relative Toxicity, Mustard Beetles” value turned out to be 440.

Consider `CCCOC(=O)C(C)=C[C@@H]1[C@@H](C(=O)OCc2coc(Cc3ccccc3)c2)C1(C)C` [Compound P19E], for which the “Relative Toxicity, Houseflies” value in experiment [1] worked out at 290. The “Relative Toxicity, Mustard Beetles” value in experiment [2] is 500.

On to `CCC(=C[C@@H]1[C@@H](C(=O)OCc2coc(Cc3ccccc3)c2)C1(C)C)C(=O)OC` [Compound P19F], for which the “Relative Toxicity, Houseflies” value in experiment [1] is 130. Further, the “Relative Toxicity, Mustard Beetles” value in experiment [2] is reported as 360.

For `CCOC(=O)C(=C[C@@H]1[C@@H](C(=O)OCc2coc(Cc3ccccc3)c2)C1(C)C)CC` [Compound P19G], the “Relative Toxicity, Houseflies” value in experiment [1] was found to be 300. For the same molecule, in experiment [2], the “Relative Toxicity, Mustard Beetles” value is on record as 500.

Turning to `CCCOC(=O)C(=C[C@@H]1[C@@H](C(=O)OCc2coc(Cc3ccccc3)c2)C1(C)C)CC` [Compound P19H], in experiment [1], the “Relative Toxicity, Houseflies” value is given as 20. In addition, the “Relative Toxicity, Mustard Beetles” value in experiment [2] amounted to 50.

Take `CC1(C)[C@H](C=C(Cl)Cl)[C@H]1C(=O)OCc1coc(Cc2ccccc2)c1` [Compound P21A]: the “Relative Toxicity, Houseflies” value in experiment [1] came to 2500. Besides, the “Relative Toxicity, Mustard Beetles” value in experiment [2] stood at 2700.

As to `CC1(C)[C@H](C=C(Br)Br)[C@H]1C(=O)OCc1coc(Cc2ccccc2)c1` [Compound P21B], the “Relative Toxicity, Houseflies” value in experiment [1] is 1100. In addition, the “Relative Toxicity, Mustard Beetles” value in experiment [2] is listed as 1900.

As to `CC1(C)C(C=C(Cl)Cl)C1C(=O)OCc1cccc(Cc2ccccc2)c1` (stereo not shown) [Compound P21K], in experiment [1], the “Relative Toxicity, Houseflies” value came to 340. Besides, the “Relative Toxicity, Mustard Beetles” value in experiment [2] is reported as 350.

For `COC(=O)C(Cl)=C[C@@H]1[C@@H](C(=O)OCc2coc(Cc3ccccc3)c2)C1(C)C` [Compound P24A, 5-benzyl-3-furylmethyl ester of 2,2-dimethyl-3-(2-chloro-2-carbomethoxyvinyl)cyclopropane carboxylic acid], in experiment [1], the “Relative Toxicity, Houseflies” value came out at 82. Moreover, the “Relative Toxicity, Mustard Beetles” value in experiment [2] is reported as 310.

Turning to `CCOC(=O)C(Cl)=C[C@@H]1[C@@H](C(=O)OCc2coc(Cc3ccccc3)c2)C1(C)C` [Compound P24B], the “Relative Toxicity, Houseflies” value in experiment [1] is recorded as 150. Further, the “Relative Toxicity, Mustard Beetles” value in experiment [2] is listed as 310.

Turning to `C=C(C)C1C(C(=O)OCc2coc(Cc3ccccc3)c2)C1(C)C` (stereo not shown) [F], in experiment [1], the “Relative Toxicity, Houseflies” value is on record as 21.

On to `CC=C(C)C1C(C(=O)OCc2coc(Cc3ccccc3)c2)C1(C)C` (stereo not shown) [G], for which the “Relative Toxicity, Houseflies” value in experiment [1] amounted to 18.
